Here are results for 26 molecules from patent publication US20200405696A1, “INHIBITORS OF INDOLEAMINE 2,3-DIOXYGENASE AND/OR TRYPTOPHAN 2,3-DIOXYGENASE” (IDORSIA PHARMACEUTICALS LTD, priority 2018, published 2020).

Assay [1] concerns the target T1, Recombinant full-length human IDO1 (Homo sapiens, UniProt P14902).
T1 construct: Recombinant full-length human IDO1 with a N-terminal hexahistidine tag; hexahistidine (His6) (N); made in house; host or cells: E. coli
The assay is described as follows: IDO1 enzymatic assay (NFK quantified by LCMS). It counts as biochemical. The following applies: 2 nM enzyme, 5 μM L-tryptophan, pH6.5, 30 minutes pre-incubation at RT; mean values when measured multiple times; read-out: hIDO activity (IC50 in nM). In a few lines: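 IC50 comes from four-parameter logistic fits of duplicate data, with NFK quantified by LCMS and normalized to L-Trp-(indole-d5). Compound (0.5 nM–10 μM) was preincubated 30 min at RT with 2 nM E. coli-expressed IDO1 before a 30 min reaction with 5 μM tryptophan in pH 6.5 buffer containing ascorbate and methylene blue.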

In assay [2] the target is T2, Recombinant human TDO comprising amino acids 19-407 (Homo sapiens, UniProt P48775).
T2 construct: Recombinant human TDO comprising amino acids 19-407 with a N-terminal hexahistidine tag; hexahistidine (His6) (N); made in house; host or cells: E. coli
The assay is described as follows: TDO2 enzymatic assay (NFK quantified by LCMS). The format is biochemical. As to conditions: 15 nM enzyme, 200 μM L-tryptophan, pH7, 30 minutes pre-incubation at RT; mean values when measured multiple times; read-out: hTDO activity (IC50 in nM). In a few lines:
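NFK formed over 30 min at RT from 200 μM L-tryptophan was measured by LCMS, normalized to d5-tryptophan, after compound (0.5 nM–10 μM, duplicates, 0.6% DMSO) was preincubated 30 min with 15 nM recombinant His-tagged TDO 19-407 in phosphate buffer pH 7. IC50 from four-parameter logistic fit; repeats averaged.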

T2 sequence (P48775 19-406 limits assumed): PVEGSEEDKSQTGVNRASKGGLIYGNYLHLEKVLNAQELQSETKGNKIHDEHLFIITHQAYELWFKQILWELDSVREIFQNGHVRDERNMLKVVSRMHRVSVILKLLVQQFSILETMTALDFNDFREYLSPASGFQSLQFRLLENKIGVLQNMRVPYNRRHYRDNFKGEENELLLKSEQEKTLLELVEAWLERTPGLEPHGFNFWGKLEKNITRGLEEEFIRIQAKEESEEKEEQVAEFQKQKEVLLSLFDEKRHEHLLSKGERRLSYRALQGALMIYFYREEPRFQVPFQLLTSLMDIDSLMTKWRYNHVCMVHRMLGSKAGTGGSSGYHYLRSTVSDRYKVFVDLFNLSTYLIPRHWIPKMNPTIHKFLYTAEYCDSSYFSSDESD
T1 sequence (P14902 whole entry): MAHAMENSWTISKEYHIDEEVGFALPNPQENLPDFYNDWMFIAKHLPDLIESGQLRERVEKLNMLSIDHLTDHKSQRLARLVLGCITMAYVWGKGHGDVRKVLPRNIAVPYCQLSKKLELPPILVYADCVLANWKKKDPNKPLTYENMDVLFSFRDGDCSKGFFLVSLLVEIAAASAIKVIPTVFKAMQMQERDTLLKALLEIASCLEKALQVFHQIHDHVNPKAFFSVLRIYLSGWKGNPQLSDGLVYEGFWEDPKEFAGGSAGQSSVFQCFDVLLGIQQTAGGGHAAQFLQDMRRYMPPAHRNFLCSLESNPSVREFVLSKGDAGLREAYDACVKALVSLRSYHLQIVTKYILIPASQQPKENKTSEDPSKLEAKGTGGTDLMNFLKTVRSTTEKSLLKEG

Regarding `OC(c1cn(-c2cccc3cnccc23)nn1)c1c(C2CC2)sc2cncn12` (racemic) [Example 23, rac-(2-Cyclopropyl-imidazo[5,1-b]thiazol-3-yl)-(1-isoquinolin-5-yl-1H-[1,2,3]triazol-4-yl)-methanol], the half-inhibitory concentration (IC50) in assay [1] was 24 nM; in assay [2] it was more than 10200 nM.

In the case of `CC(C)C(=O)Nc1ccc(-n2cc(C(O)c3c(C4CC4)sc4cncn34)nn2)cc1` (racemic) [Example 192, rac-N-(4-{4-[(2-Cyclopropyl-imidazo[5,1-b]thiazol-3-yl)-hydroxy-methyl]-[1,2,3]triazol-1-yl}-phenyl)-isobutyramide], the results for the IC50 in assay [1] and in assay [2] were 13.5 nM and more than 10200 nM, respectively.

`CC1(c2sc3cncn3c2C(O)c2cn(-c3ccc(O)c(Cl)c3)nn2)CC1` (racemic) [Example 324, rac-2-Chloro-4-(4-{hydroxy-[2-(1-methyl-cyclopropyl)-imidazo[5,1-b]thiazol-3-yl]-methyl}-[1,2,3]triazol-1-yl)-phenol]: the concentration for half-maximal inhibition (IC50) in assay [1] was determined as 12.1 nM; in assay [2], 9820 nM.

As for `OC(c1cn(-c2cccc3cc[nH]c23)nn1)c1c(C2CC2)sc2cncn12` (racemic) [Example 27, rac-(2-Cyclopropyl-imidazo[5,1-b]thiazol-3-yl)-[1-(1H-indol-7-yl)-1H-[1,2,3]triazol-4-yl]-methanol], the half-maximal inhibitory concentration (IC50) was 24.1 nM in assay [1] and more than 10200 nM in assay [2].

Take `CCc1sc2cncn2c1C(O)c1cn(-c2ccc(C(=O)NCCOC)cc2)nn1` (racemic) [Example 196, rac-4-{4-[(2-Ethyl-imidazo[5,1-b]thiazol-3-yl)-hydroxy-methyl]-[1,2,3]triazol-1-yl}-N-(2-methoxy-ethyl)-benzamide]: the values for the IC50 in assay [1] and in assay [2] were 17.1 nM and more than 10200 nM, respectively.

As for `CCc1sc2cncn2c1C(O)c1cn(-c2ccc(C(=O)NCCC#N)cc2)nn1` (racemic) [Example 130, rac-N-(2-Cyano-ethyl)-4-{4-[(2-ethyl-imidazo[5,1-b]thiazol-3-yl)-hydroxy-methyl]-[1,2,3]triazol-1-yl}-benzamide], the figures for the 50% inhibitory concentration (IC50) in assay [1] and in assay [2] were 13.1 nM and more than 10200 nM, respectively.

Take `Cn1nccc1-c1ccc(C(O)c2c(C3CC3)sc3cncn23)s1` (racemic) [Example 169, rac-(2-Cyclopropyl-imidazo[5,1-b]thiazol-3-yl)-[5-(2-methyl-2H-pyrazol-3-yl)-thiophen-2-yl]-methanol]: the values for the IC50 in assay [1] and in assay [2] were 60 nM and 2940 nM, respectively.

For the molecule `CCNC(=O)Nc1ccc(-n2cc(C(O)c3c(C4CC4)sc4cncn34)nn2)cc1OC` (racemic) [Example 183, rac-1-(4-{4-[(2-Cyclopropyl-imidazo[5,1-b]thiazol-3-yl)-hydroxy-methyl]-[1,2,3]triazol-1-yl}-2-methoxy-phenyl)-3-ethyl-urea], the half-maximal inhibitory concentration (IC50) is 15.5 nM in assay [1] and more than 10200 nM in assay [2].

Regarding `OCCCOc1ccc(-n2cc(C(O)c3c(C4CC4)sc4cncn34)nn2)cc1` (racemic) [Example 137, rac-3-(4-{4-[(2-Cyclopropyl-imidazo[5,1-b]thiazol-3-yl)-hydroxy-methyl]-[1,2,3]triazol-1-yl}-phenoxy)-propan-1-ol], the IC50 in assay [1] was 11.1 nM; in assay [2], more than 10200 nM.

Regarding `CCCCNC(=O)Nc1ccc(-n2cc(C(O)c3c(CC)sc4cncn34)nn2)cc1` (racemic) [Example 122, rac-1-Butyl-3-(4-{4-[(2-ethyl-imidazo[5,1-b]thiazol-3-yl)-hydroxy-methyl]-[1,2,3]triazol-1-yl}-phenyl)-urea], the half-inhibitory concentration (IC50) in assay [1] worked out at 25.6 nM; in assay [2], 2070 nM.

As to `COc1ccc(-n2cc(C(O)c3c(-c4cnn(C)c4)sc4cncn34)nn2)cc1` (racemic) [Example 273, rac-[1-(4-Methoxy-phenyl)-1H-[1,2,3]triazol-4-yl]-[2-(1-methyl-1H-pyrazol-4-yl)-imidazo[5,1-b]thiazol-3-yl]-methanol], the results for the IC50 in assay [1] and in assay [2] were 43.6 nM and more than 10200 nM, respectively.

Regarding `COc1ccc(-n2cc(C(O)c3c(C4CC4)sc4cncn34)cn2)cn1` (racemic) [Example 223, rac-(2-Cyclopropyl-imidazo[5,1-b]thiazol-3-yl)-[1-(6-methoxy-pyridin-3-yl)-1H-pyrazol-4-yl]-methanol], the IC50 in assay [1] is 164 nM; in assay [2], more than 10200 nM.

As for `CC(F)(F)c1sc2cncn2c1C(O)c1cn(-c2ccc(OCCCO)c(Cl)c2)nn1` (racemic) [Example 314, rac-3-[2-Chloro-4-(4-{[2-(1,1-difluoro-ethyl)-imidazo[5,1-b]thiazol-3-yl]-hydroxy-methyl}-[1,2,3]triazol-1-yl)-phenoxy]-propan-1-ol], the IC50 is 10.2 nM in assay [1] and more than 10200 nM in assay [2].

For the molecule `OC(c1cn(-c2cccc3ccncc23)nn1)c1c(C2CC2)sc2cncn12` (racemic) [Example 22, rac-(2-Cyclopropyl-imidazo[5,1-b]thiazol-3-yl)-(1-isoquinolin-8-yl-1H-[1,2,3]triazol-4-yl)-methanol], the concentration for half-maximal inhibition (IC50) in assay [1] is 39.6 nM; in assay [2], more than 10200 nM.

`CCN(CC)S(=O)(=O)c1ccc(-n2cc(C(O)c3c(C4CC4)sc4cncn34)nn2)cc1` (racemic) [Example 238, rac-4-{4-[(2-Cyclopropyl-imidazo[5,1-b]thiazol-3-yl)-hydroxy-methyl]-[1,2,3]triazol-1-yl}-N,N-diethyl-benzenesulfonamide]: the results for the half-inhibitory concentration (IC50) in assay [1] and in assay [2] were 137 nM and more than 10200 nM, respectively.

On to `COc1ccc(-n2cc(C(O)c3c(-c4ccc(F)cc4)sc4cncn34)nn2)cc1` (racemic) [Example 286, rac-[2-(4-Fluoro-phenyl)-imidazo[5,1-b]thiazol-3-yl]-[1-(4-methoxy-phenyl)-1H-[1,2,3]triazol-4-yl]-methanol], for which the values for the 50% inhibitory concentration (IC50) in assay [1] and in assay [2] were 704 nM and more than 10200 nM, respectively.

`COc1ccc(-n2cc(C(O)c3c(C4(F)CC4)sc4cncn34)nn2)cc1` (racemic) [Example 92, rac-[2-(1-Fluoro-cyclopropyl)-imidazo[5,1-b]thiazol-3-yl]-[1-(4-methoxy-phenyl)-1H-[1,2,3]triazol-4-yl]-methanol]: the IC50 was 32.7 nM in assay [1] and more than 10200 nM in assay [2].

Take `COc1ccc(-n2cc(C(O)c3c(C4CC4)sc4cncn34)nn2)c(C)c1` (racemic) [Example 306, rac-(2-Cyclopropyl-imidazo[5,1-b]thiazol-3-yl)-[1-(4-methoxy-2-methyl-phenyl)-1H-[1,2,3]triazol-4-yl]-methanol]: the half-inhibitory concentration (IC50) in assay [1] is 17.9 nM; in assay [2], more than 10200 nM.

Consider `OC(c1ccc(-c2cncc3ccccc23)s1)c1c(C2CC2)sc2cncn12` (racemic) [Example 177, rac-(2-Cyclopropyl-imidazo[5,1-b]thiazol-3-yl)-(5-isoquinolin-4-yl-thiophen-2-yl)-methanol], for which the concentration for half-maximal inhibition (IC50) in assay [1] amounted to 138 nM; in assay [2], 8620 nM.

In the case of `Cn1nncc1-c1ccc(C(O)c2c(C3CC3)sc3cncn23)s1` (racemic) [Example 174, rac-(2-Cyclopropyl-imidazo[5,1-b]thiazol-3-yl)-[5-(3-methyl-3H-[1,2,3]triazol-4-yl)-thiophen-2-yl]-methanol], the half-inhibitory concentration (IC50) was found to be 279 nM in assay [1] and 7710 nM in assay [2].

Turning to `OC(c1cn(-c2cnc(OCc3ccccc3)nc2)nn1)c1c(C2CC2)sc2cncn12` (racemic) [Example 85, rac-[1-(2-Benzyloxy-pyrimidin-5-yl)-1H-[1,2,3]triazol-4-yl]-(2-cyclopropyl-imidazo[5,1-b]thiazol-3-yl)-methanol], the results for the IC50 in assay [1] and in assay [2] were 11.5 nM and more than 10200 nM, respectively.

On to `CC(=O)Nc1ccc(-n2cc(C(O)c3c(C4CC4)sc4cncn34)cn2)cc1` (racemic) [Example 224, rac-N-(4-{4-[(2-Cyclopropyl-imidazo[5,1-b]thiazol-3-yl)-hydroxy-methyl]-pyrazol-1-yl}-phenyl)-acetamide], for which the values for the 50% inhibitory concentration (IC50) in assay [1] and in assay [2] were 1100 nM and more than 10200 nM, respectively.

As to `COc1ccc(-n2cc(C(O)c3c(C4CC4)sc4cncn34)nn2)cc1C#N` (racemic) [Example 135, rac-5-{4-[(2-Cyclopropyl-imidazo[5,1-b]thiazol-3-yl)-hydroxy-methyl]-[1,2,3]triazol-1-yl}-2-methoxy-benzonitrile], the figures for the half-maximal inhibitory concentration (IC50) in assay [1] and in assay [2] were 14 nM and more than 10200 nM, respectively.

Turning to `Cc1ccccc1-n1cc(C(O)c2c(C3CC3)sc3cncn23)nn1` (racemic) [Example 3, rac-(2-Cyclopropyl-imidazo[5,1-b]thiazol-3-yl)-(1-o-tolyl-1H-[1,2,3]triazol-4-yl)-methanol], the half-inhibitory concentration (IC50) in assay [1] is 49.2 nM; in assay [2], more than 10200 nM.

`CCc1sc2cncn2c1C(O)c1cn(-c2ccc(C3(CO)CC3)cc2)nn1` (racemic) [Example 48, rac-(2-Ethyl-imidazo[5,1-b]thiazol-3-yl)-{1-[4-(1-hydroxymethyl-cyclopropyl)-phenyl]-1H-[1,2,3]triazol-4-yl}-methanol]: the half-inhibitory concentration (IC50) in assay [1] was 60.6 nM; in assay [2], more than 10200 nM.

On to `Oc1ccc(-n2cc(C(O)c3c(C4CC4)sc4cncn34)nn2)c(F)c1` (racemic) [Example 208, rac-4-{4-[(2-Cyclopropyl-imidazo[5,1-b]thiazol-3-yl)-hydroxy-methyl]-[1,2,3]triazol-1-yl}-3-fluoro-phenol], for which the IC50 in assay [1] came out at 9.58 nM; in assay [2], 6400 nM.
